SMILES strings stand for the structures. Positions count from the first letter of the chain named. pIC50: −log10 of the molar value. Like-named read-outs stand apart in the source and are kept apart here.

Data set [1] deals with AML patients carrying mutant IDH2. The arrangement: method as in PMID 29346478, PMID 29346477. Particulars: patients responding to Enasidenib; cited from earlier work.
The target of the next data set is T1, IDH2/R140Q (Homo sapiens, UniProt P48735, R140Q).
T1 construct: FLAG (C); purchased BPS Bioscience
T1 sequence (P48735 40-452 R140Q): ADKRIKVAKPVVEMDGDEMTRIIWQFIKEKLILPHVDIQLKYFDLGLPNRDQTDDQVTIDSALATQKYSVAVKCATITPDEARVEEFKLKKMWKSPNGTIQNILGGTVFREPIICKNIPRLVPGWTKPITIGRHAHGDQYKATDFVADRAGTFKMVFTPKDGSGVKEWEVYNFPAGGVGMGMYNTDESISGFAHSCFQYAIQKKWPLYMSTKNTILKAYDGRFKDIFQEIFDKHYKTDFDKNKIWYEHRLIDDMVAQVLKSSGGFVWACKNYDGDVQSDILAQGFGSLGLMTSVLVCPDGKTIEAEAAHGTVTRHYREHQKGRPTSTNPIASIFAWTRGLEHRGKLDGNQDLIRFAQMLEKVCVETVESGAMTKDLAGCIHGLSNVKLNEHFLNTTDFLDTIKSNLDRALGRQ
Description: Diaphorase/resazurin coupled NADPH depletion enzymatic assay, IDH2/R140Q homodimer. The class given is biochemical. The note with it: read-out: IC50 for α-KG reduction. As to the method: (§1) The compounds were dissolved to a concentration of 20 mM in pure DMSO. Diaphorase/resazurin coupled NADPH deletion or production assays were used to measure the activity of IDH mutants or wild-type IDH (IDH/WT) enzymes. […] Afterwards, 20 μL of the gradient concentrations of compound dilution were added to this mixture and incubated at 25 °C for 1 h or 16 h. […] Further, 20 μL of 4X assay buffer containing 0.6 mM isocitrate was used for enzymatic reaction.
On the technique in general: Resazurin is reduced to fluorescent resorufin, in cell work by metabolically active cells.

The target of the next data set is T2, IDH2/WT (Homo sapiens, UniProt P48735).
T2 construct: FLAG (C); purchased BPS Bioscience
T2 sequence (P48735 40-452): T1 sequence (P48735 40-452 R140Q) with Q101R
The experiment in a line: Diaphorase/resazurin coupled NADPH production enzymatic assay, IDH2/WT. The note with it: incubation time 16 h, read-out: IC50 for isocitrate to α-KG. The class given is biochemical. As for the experimental part:
as §1

The target in the next data set is T3, IDH1/R132H (Homo sapiens, UniProt O75874, R132H).
T3 construct: FLAG (C); purchased BPS Bioscience
T3 sequence (O75874 whole entry R132H): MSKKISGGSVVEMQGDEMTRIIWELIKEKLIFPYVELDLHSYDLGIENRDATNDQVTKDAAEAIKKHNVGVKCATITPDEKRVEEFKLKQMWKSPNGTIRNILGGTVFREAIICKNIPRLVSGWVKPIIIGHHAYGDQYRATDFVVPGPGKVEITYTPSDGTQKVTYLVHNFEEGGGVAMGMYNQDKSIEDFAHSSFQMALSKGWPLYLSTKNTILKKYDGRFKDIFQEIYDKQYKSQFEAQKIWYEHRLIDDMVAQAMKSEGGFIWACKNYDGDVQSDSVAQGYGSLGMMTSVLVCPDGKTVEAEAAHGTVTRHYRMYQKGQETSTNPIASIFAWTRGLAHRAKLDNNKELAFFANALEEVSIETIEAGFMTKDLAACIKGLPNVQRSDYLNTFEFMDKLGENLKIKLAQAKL
The experiment in a line: Enzymatic assay, IDH1/R132H. Particulars: incubation time 16 h, read-out: IC50 for α-KG reduction. The class given is biochemical. As for the experimental part:
Analogously, a mixture of the IDH1/R132H enzyme (0.2 μg/mL) and NADPH (30 μM) was prepared in the assay buffer [10 mM MgCl2, 150 mM NaCl, 20 mM Tris-Cl (pH 7.5), 0.05% BSA, and 2 mM β-mercaptoethanol], after which compound dilutions were added and incubated for 16 h at 25 °C. The activity was measured using the same method as for IDH2/R140Q.

In the next data set the target is T4, IDH1/WT (Homo sapiens, UniProt O75874).
T4 construct: FLAG (C); purchased BPS Bioscience
T4 sequence (O75874 whole entry): as the sequence (O75874 whole entry R132H) above, with H132R counted along it
The experiment in a line: Enzymatic assay, IDH1/WT. The class given is biochemical. Particulars: incubation time 16 h, read-out: IC50 for isocitrate to α-KG. As for the experimental part:
A mixture of the IDH1/WT (0.08 μg/mL) and NADP (50 μM) was prepared in the assay buffer [10 mM MgCl2, 150 mM NaCl, 20 mM Tris (pH 7.5), 2 mM β-mercaptoethanol, and 0.05% BSA], after which compound dilutions were added and incubated for 16 h at 25 °C. Other operations were referred to the assay of IDH2/WT.

In data set [2] the test system is TF-1(IDH2/R140Q) cells. The experiment in a line: D-2-HG assay (LC-MS) in cells. The class given is cell-based. The note with it: 72 h, 3 days of treatment, read-out: IC50 of intracellular D-2-HG production. As to the method: (§2) TF-1(IDH2R140Q) cells were seeded in a 12-well plate at a density of 5 × 10^4/mL. The test compound was added in different concentration gradients (3000, 1000, 333.33, 111.11, 37.04, 12.35, 4.12, and 1.37 nM). The cells were collected after 3 days of treatment. The cell pellet was suspended in 100 μL 80% aqueous methanol solution, containing 1 μg/mL Phenacetin as the internal standard. The cell lysate was centrifuged at 13,000 rpm for 10 min. The precipitate was removed at 4 °C and stored in an − 80 °C refrigerator. Before injection, the cell lysate was centrifuged again at 13,000 rpm for 10 min. The supernatant was transferred into the liquid phase cannula for injection. The test instrument was a Q Exactive™ Plus-Orbitrap™ MS, Thermo Scientific benchtop quadrupole-orbitrap high resolution mass spectrometer. The column used was Waters™ ACQUITY™ UPLC HSS-T3–1.8 μm, […] × 100 mm (part No. 186003539). The mobile phase was: Phase A, 0.1% aqueous formic acid (chromatographically pure); and Phase B, acetonitrile (chromatographically pure). The gradients were set as 1% B for 1.5 min → 70% B for 0.5 min → 1% B for 1.5 min → 0% B. The column was re-equilibrated for 2 min between injections. A temperature of 40 °C was set for the column with a flow rate of 0.2 mL/min. […] D-2-HG and Phenacetin were monitored by mass transitions of m/z 147 → m/z 129 and m/z 178 → m/z 147, respectively. […]

Data set [3] concerns TF-1(IDH2/R140Q) cells. Description: GM-CSF-independent proliferation assay. The class given is cell-based. The note with it: 3 μM, 7 days. As for the experimental part:
(§3) The cell proliferation was detected by CellTiter 96® AQueous One Solution Cell Proliferation Assay Kit (Promega) according to the protocol. Briefly, TF-1(WT) and TF-1(IDH2/R140Q) cells were cultured in complete growth medium that is supplemented with 2 ng/mL GM-CSF. Prior to the proliferation assay, the cells were washed three times with PBS to eliminate GM-CSF. These cells were transferred to 96 well plates (5000 cells per well), with each well containing 100 μL growth medium without GM-CSF, and treated with CP-17 (1 or 3 μM) for 7 days. Then 20 μL per well of CellTiter 96® AQueous One Solution Reagent were added to each well. The plate was incubated at 37 °C for 4 h in a humidified, 5% CO2 atmosphere, and then the absorbance at 490 nm was recorded using a 96-well plate reader. Three independent repetitive experiments were carried out and analyzed by Graphpad Prism 5.0. […] T-test was used to compare the difference significance with control group and the data meet the assumption of the test.

The test system of another data set is TF-1(WT) cells. The experiment in a line: GM-CSF-independent proliferation assay. The class given is cell-based. The note with it: 3 μM, 7 days. As to the method:
as §3

In data set [4] the test system is TF-1(IDH2/R140Q) cells. Description: EPO-induced differentiation assay. The class given is cell-based. The note with it: 1 μM, 7 days. As to the method: TF-1(WT) and TF-1(IDH2/R140Q) cells were washed three times by PBS to remove GM-CSF and treated with CP-17 (1 or 3 μM) and 5 ng/mL EPO for 7 days.
as §2, with “pure).” for “pure). The gradients were set as 1% B for 1.5 min → 70% B for 0.5 min → 1% B for 1.5 min → 0% B. The column was re-equilibrated for 2 min between injections. A temperature of 40 °C was set for the column with a flow rate of 0.2 mL/min.”

The subject of data set [5] is TF-1(IDH2/R140Q) cells. Description: Histone methylation assay (western blot). The class given is cell-based. The note with it: 1 and 3 μM, 7 days. As to the method:
TF-1(WT) and TF-1(IDH2/R140Q) cells were treated with CP-17 (1 or 3 μM) in the presence of recombinant human GM-CSF for 7 days and then lysed and evaluated for the expression of H3K9me3, H3K4me3, H3K27me3, and H3 with specific antibodies by western blot. The total amount of histone H3 was used as the loading control. Three independent repetitive experiments were carried out.
Background: In western blotting, separated proteins are transferred to a membrane and probed.

On to `CC(C)(O)CNc1nc(Nc2ccnc(C(F)(F)F)c2)nc(-c2cccc(C(F)(F)F)n2)n1` [Enasidenib], for which the “Patients who develop differentiation syndrome” value in data set [1] is 11.7%.
In the case of `Cc1ccc(Cl)cc1NC(=O)Nc1cc(NC(=O)c2ccccc2)ccc1N1CCCC1` [CP-17, N-(3-(3-(5-chloro-2-methylphenyl)ureido)-4-(pyrrolidin-1-yl)phenyl)benzamide], the pIC50 (as a rule, the negative decadic logarithm of the IC50, by convention in mol/L) on IDH2/R140Q (incubation time 1 h) is 7.00; on IDH2/R140Q (incubation time 16 h), 7.39; on IDH2/WT, 5.64; at IDH1/R132H, less than 5.30; on IDH1/WT it was less than 5.30; in the data set on TF-1(IDH2/R140Q) cells [2], 6.85. Also, the GM-CSF-independent growth result with TF-1(IDH2/R140Q) cells [3] is reported as “significantly inhibited”. Further, in the data set on TF-1(WT) cells, the Proliferation result is listed as “no obvious effect”. The “EPO-induced differentiation (color change, hemoglobin γ expression)” value in the data set with TF-1(IDH2/R140Q) cells [4] was “restored the EPO-induced color change and hemoglobin γ expression”. The “Histone methylation (H3K4me3, H3K9me3, H3K27me3)” value in the data set with TF-1(IDH2/R140Q) cells [5] is recorded as “dose-dependent decrease in histone methylation”.
